{"source": "patent US9695127B2", "about": "“Compounds for treating HIV and methods for using the compounds” (University of Pittsburgh—Of the Commonwealth System of …, priority 2012, dated 2017)", "key": {"HIV-1 NL4-3": {"test_system": "HIV-1 NL4-3", "assay": "HIV-1 infectivity in TZM-b1 reporter cells (luciferase)", "assay_type": "cell-based", "settings": "for inhibition at 3 µM: Human immunodeficiency virus 1, NL43, TZM-b1, 48 h, read-out: INFECTIVITY @ 3 μM % Inhibition vs. DMSO control", "method": "Compounds (1 μM) shown in FIG. 7 were added to cultures of U87MG and CEM-T4 cells in 96-well plates, followed by infection with wild-type HIV-1 NL4-3 (50 pg p24 equivalents/ml) 1 hour later. […] Virus replication was assessed by p24 ELISA after 4 days (U87MG) or 9 days (CEM-T4). Data are expressed as the mean percent inhibition as compared to control cultures incubated with the carrier solvent (DMSO)±S.E.M. (n=4). […] FIG. 9 concerns infectivity assays. Compounds (3 μM) were added to cultures of the reporter cell line TZM-b1 followed by infection with either wild-type or Nef-defective (ΔNef) HIV NL4-3 in 96-well plates. After 48 hours, relative virus infectivity was assessed as luciferase production in infected cells. […]\nHIV assays: Viral stocks were prepared by transfection of 293T cells (ATCC) with wild-type and Nef-defective (ΔNef) proviral genomes (NL4—3 strain) and amplified in the T-cell line, MT2 (NIH AIDS Research and Reference Reagent Program). Viral replication was assessed in the U87MG astroglioma cell line engineered to express the HIV-1 co-receptors CD4 and CXCR4 or in the T-lymphoblast cell line, CEM-T4. […] Compounds were solubilized in DMSO, and added to the cell culture medium 1 h prior to infection with HIV. Viral replication was monitored for either 4 days (U87MG) or 9 days (CEM-T4) by measuring p24 Gag protein levels in the culture supernatant using standard ELISA-based techniques. HIV-1 infectivity was measured using the reporter cell line, TZM-b1 (NM AIDS Research and Reference Reagent Program). Cells were grown in 96-well plates (2.5×10^4) 8 h prior to virus infection to permit adherence. Compounds were pre-incubated with wild-type HIV-1 for 4 h prior to addition to the cells in a final volume of 200 μl. After 48 h at 37° C., the cells were washed with PBS and lysed in luciferase lysis buffer (Promega) by rocking for 15 min Lysates (40 μl) were transferred to white 96-well plates and 50 μl luciferase reagent (Promega) was injected into each well. Readings were recorded with a delay time of 2 sec and an integration period of 10 sec."}, "wild-type HIV-1 NL4-3": {"test_system": "wild-type HIV-1 NL4-3", "assay": "HIV-1 replication in U87MG cells (p24 ELISA)", "assay_type": "cell-based", "settings": "for REPLICATION @ 3 μM % Inhibition vs. DMSO control: U87MG cells; for inhibition at 3 µM: Human immunodeficiency virus 1, NL43, U-87 MG, 96 h, read-out: REPLICATION @ 3 μM % Inhibition vs. DMSO control", "text": "In particular disclosed embodiments, the compound may be used to block Nef-dependent HIV replication and infectivity. FIG. 7 illustrates the chemical structures of the compounds identified by the Nef:Hck HTS campaign and subsequently shown to block Nef-dependent enhancement of HIV-1 replication in two different cell lines are shown, along with the IC50 values for each compound against Hck alone vs. the Nef:Hck complex. FIG. 8 illustrates results concerning HIV replication. […] Viral output for the DMSO-treated control cultures was consistently greater than 100-fold over the HIV input, typically ranging from 9,000-12,000 p24 equivalents/ml. Virus replication was assessed by p24 ELISA after 4 days (U87MG) or 9 days (CEM-T4). Data are expressed as the mean percent inhibition as compared to control cultures incubated with the carrier solvent (DMSO)±S.E.M. (n=4). Results of replication and cytotoxicity experiments with all certain hit compounds from the primary screen are shown in FIG. 3 and FIG. 4. FIG. 9 concerns infectivity assays. Compounds (3 μM) were added to cultures of the reporter cell line TZM-b1 followed by infection with either wild-type or Nef-defective (ΔNef) HIV NL4-3 in 96-well plates. After 48 hours, relative virus infectivity was assessed as luciferase production in infected cells. Results are plotted as the mean percent of HIV-1 infectivity observed in control cells incubated with the carrier solvent DMSO±S.E.M. (n=3). In the absence of Nef, infectivity is reduced by about 50% (ΔNef; dashed line shown for reference).\nHIV assays: Viral stocks were prepared by transfection of 293T cells (ATCC) with wild-type and Nef-defective (ΔNef) proviral genomes (NL4—3 strain) and amplified in the T-cell line, MT2 (NIH AIDS Research and Reference Reagent Program). Viral replication was assessed in the U87MG astroglioma cell line engineered to express the HIV-1 co-receptors CD4 and CXCR4 or in the T-lymphoblast cell line, CEM-T4. Both the U87 MG and CEM-T4 cell lines support HIV-1 replication in a Nef-dependent manner, and were obtained from the NM AIDS Research and Reference Reagent Program. Compounds were solubilized in DMSO, and added to the cell culture medium 1 h prior to infection with HIV. Viral replication was monitored for either 4 days (U87MG) or 9 days (CEM-T4) by measuring p24 Gag protein levels in the culture supernatant using standard ELISA-based techniques. HIV-1 infectivity was measured using the reporter cell line, TZM-b1 (NM AIDS Research and Reference Reagent Program). Cells were grown in 96-well plates (2.5×10^4) 8 h prior to virus infection to permit adherence. Compounds were pre-incubated with wild-type HIV-1 for 4 h prior to addition to the cells in a final volume of 200 μl. After 48 h at 37° C., the cells were washed with PBS and lysed in luciferase lysis buffer (Promega) by rocking for 15 min Lysates (40 μl) were transferred to white 96-well plates and 50 μl luciferase reagent (Promega) was injected into each well. Readings were recorded with a delay time of 2 sec and an integration period of 10 sec."}, "[1]": {"assay": "Preliminary pharmacokinetics in C3H mice", "settings": "for T1/2: i.v., 2 mg/kg; for % F (oral bioavailability): p.o., 10 mg/kg", "procedure": "Compounds were administered to male C3H mice via the i.v. and p.o. routes, and plasma concentrations were assessed by LC-MS/MS at the time points indicated. Plasma levels were determined for three mice at each time point and are shown as the mean±S.D."}, "cell-surface CD4": {"test_system": "cell-surface CD4", "assay": "Nef-induced CD4 downregulation in CEM-GFP cells (flow cytometry)", "assay_type": "cell-based", "settings": "CEM-GFP cells infected with HIV-1 WT NL43, 8 days", "method": "(§1) CEM-GFP cells were treated for 4 hrs with compounds or DMSO (control), then infected with 100 pg/ml HIV-1 WT NL43 or 500 pg/ml ΔNef-NL43.\nPercentages on the flow diagrams (FIGS. 33A-33E) show percent of cells positive for CD4."}, "cell-surface MHC-I": {"test_system": "cell-surface MHC-I", "assay": "Nef-induced MHC-I downregulation in CEM-GFP cells (flow cytometry)", "assay_type": "cell-based", "settings": "CEM-GFP cells infected with HIV-1 WT NL43, 8 days", "method": "as §1"}}}
{"smiles": "NC(=S)n1nc(-c2ccc([N+](=O)[O-])cc2)c(CCc2cccc(Cl)c2)c1O", "note": "[JZ-1-96-2-1]", "values": [{"measurement": "inhibition at 3 µM", "setting": "HIV-1 NL4-3", "result": 59.5, "unit": "%"}, {"measurement": "REPLICATION @ 3 μM % Inhibition vs. DMSO control", "setting": "wild-type HIV-1 NL4-3", "result": "Toxic"}, {"measurement": "T1/2", "setting": "[1]", "result": 1.53, "unit": "h"}, {"measurement": "% F (oral bioavailability)", "setting": "[1]", "result": 85, "unit": "%"}]}
{"smiles": "NC(=S)n1nc(-c2ccc([N+](=O)[O-])cc2)c(Cc2cccc(Cl)c2)c1O", "note": "[JZ-1-97-2-1]", "values": [{"measurement": "Reversal of Nef-mediated CD4 downregulation", "setting": "cell-surface CD4", "result": "reverse Nef-mediated CD4 downregulation to the same extent observed in cells infected with Nef-defective HIV-1"}, {"measurement": "Reversal of Nef-mediated MHC-I downregulation", "setting": "cell-surface MHC-I", "result": "reverse Nef-mediated MHC-I downregulation to the same extent observed in cells infected with Nef-defective HIV-1"}, {"measurement": "inhibition at 3 µM", "setting": "HIV-1 NL4-3", "result": 56.6, "unit": "%"}, {"measurement": "inhibition at 3 µM", "setting": "wild-type HIV-1 NL4-3", "result": 51.6, "unit": "%"}, {"measurement": "T1/2", "setting": "[1]", "result": 1.66, "unit": "h"}, {"measurement": "% F (oral bioavailability)", "setting": "[1]", "result": 57, "unit": "%"}]}
{"smiles": "N=C(N)n1nc(-c2ccc([N+](=O)[O-])cc2)c(CCc2cccc(Cl)c2)c1O", "note": "[JV-1-62-2-1]", "values": [{"measurement": "inhibition at 3 µM", "setting": "HIV-1 NL4-3", "result": 0, "unit": "%"}, {"measurement": "inhibition at 3 µM", "setting": "wild-type HIV-1 NL4-3", "result": 53.2, "unit": "%"}]}
{"smiles": "O=[N+]([O-])c1ccc(-c2n[nH]c(O)c2Cc2cccc(Cl)c2)cc1", "note": "[JZ-1-97-2-2]", "values": [{"measurement": "inhibition at 3 µM", "setting": "HIV-1 NL4-3", "result": 12.7, "unit": "%"}, {"measurement": "inhibition at 3 µM", "setting": "wild-type HIV-1 NL4-3", "result": 0, "unit": "%"}]}
{"smiles": "NC(=S)n1nc(-c2ccc(F)cc2)c(/N=N/c2cncc(Cl)c2)c1O", "note": "[JZ-1-107]", "values": [{"measurement": "inhibition at 3 µM", "setting": "HIV-1 NL4-3", "result": 19.7, "unit": "%"}, {"measurement": "inhibition at 3 µM", "setting": "wild-type HIV-1 NL4-3", "result": 0, "unit": "%"}]}
{"smiles": "COc1cccc(CCc2c(-c3ccc([N+](=O)[O-])cc3)nn(C(=N)N)c2O)c1", "note": "[JZ-1-135-1]", "values": [{"measurement": "inhibition at 3 µM", "setting": "HIV-1 NL4-3", "result": 9.5, "unit": "%"}, {"measurement": "inhibition at 3 µM", "setting": "wild-type HIV-1 NL4-3", "result": 54.1, "unit": "%"}]}
{"smiles": "COc1ccc(-c2nn(-c3ccccn3)c(O)c2CCc2ccc(F)cc2)cc1", "note": "[JV-1-80]", "values": [{"measurement": "INFECTIVITY @ 3 μM % Inhibition vs. DMSO control", "setting": "HIV-1 NL4-3; 3 μM, TZM-b1 reporter cells", "result": "Toxic"}, {"measurement": "REPLICATION @ 3 μM % Inhibition vs. DMSO control", "setting": "wild-type HIV-1 NL4-3", "result": "Toxic"}]}
{"smiles": "N=C(N)n1nc(-c2ccccn2)c(CCc2cccc(Cl)c2)c1O", "note": "[JZ-1-135-2]", "values": [{"measurement": "inhibition at 3 µM", "setting": "HIV-1 NL4-3", "result": 0, "unit": "%"}, {"measurement": "REPLICATION @ 3 μM % Inhibition vs. DMSO control", "setting": "wild-type HIV-1 NL4-3", "result": "Toxic"}]}
{"smiles": "COc1ccc(-c2nn(C(=N)N)c(O)c2CCc2ccc(F)cc2)cc1", "note": "[JV-1-74-1]", "values": [{"measurement": "inhibition at 3 µM", "setting": "HIV-1 NL4-3", "result": 0, "unit": "%"}, {"measurement": "inhibition at 3 µM", "setting": "wild-type HIV-1 NL4-3", "result": 27.8, "unit": "%"}]}
